Results taken from patent publication US5846976A, “Androstenone derivative” (Glaxo Wellcome Inc., priority 1996, dated 1998).
pIC50, pKi: −log10 of the molar value.

Legend:
[1] = system: bovine adrenal 3β-hydroxy-Δ^5-steroid dehydrogenase/3-keto-Δ^5-steroid isomerase (3BHSD); settings: Tan et al. 1987; Brandt and Levy 1989; cited from earlier work
[2] = system: porcine granulosa cell 3β-hydroxy-Δ^5-steroid dehydrogenase/3-keto-Δ^5-steroid isomerase (3BHSD); settings: Tan et al. 1987; Brandt and Levy 1989; cited from earlier work
[3] = McConnell 1990; Rasmusson et al. 1984; cited from earlier work
[4] = Half-life compared to finasteride and SKF105657
Human Adrenal 3BHSD = molecular target: T1, Human Adrenal 3BHSD (Homo sapiens, UniProt P26439); assay: Human adrenal 3β-hydroxy-Δ^5-steroid dehydrogenase/3-keto-Δ^5-steroid isomerase inhibition (microsomes, conversion of DHEA to androstenedione); format: biochemical
T1 construct: microsomes derived from human adrenal tissues; from tissue; host or cells: human adrenal tissue (microsomes)
T1 sequence (P26439 1-372): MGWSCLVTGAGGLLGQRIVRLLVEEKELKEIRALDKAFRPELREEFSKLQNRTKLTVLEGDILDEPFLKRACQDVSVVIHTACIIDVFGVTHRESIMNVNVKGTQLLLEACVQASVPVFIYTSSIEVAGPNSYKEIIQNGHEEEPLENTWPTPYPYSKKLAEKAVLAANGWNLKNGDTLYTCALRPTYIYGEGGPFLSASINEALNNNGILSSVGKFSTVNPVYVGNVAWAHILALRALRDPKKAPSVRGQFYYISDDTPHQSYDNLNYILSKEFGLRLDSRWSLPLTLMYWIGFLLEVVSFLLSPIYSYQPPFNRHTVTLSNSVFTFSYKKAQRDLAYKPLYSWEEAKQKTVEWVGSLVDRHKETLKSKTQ
Method: Enzyme activities are measured using microsomes derived from human adrenal tissues. Microsomes were prepared by homogenization of the tissue followed by differential centrifugation of the homogenate. Microsome extracts were incubated with varying concentrations of dehydroepiandrosterone (DHEA), 1 mM NAD+, and varying amounts of the compound of Formula (I), i.e. a test compound, in pH 7.5 buffer for a period of time within the range of 1 to 60 minutes. Corresponding incubations were carried out with no test compound as a control study. The percentage of conversion of DHEA to androstenedione in the presence of test compounds compared to the corresponding conversion in the control study was estimated using HPLC with radiochemical detection.

5α-reductase = assay: Potency compared to finasteride and SKF105657
[5] = molecular target: T2, human type 2 5α-reductase (Homo sapiens, UniProt P31213); assay: Steroid 5α-reductase type 2 inhibition (microsomes, conversion of testosterone to DHT); format: biochemical
T2 construct: made in house; host or cells: SF9 insect cells infected with recombinant baculovirus (microsomes)
T2 sequence (P31213 1-254): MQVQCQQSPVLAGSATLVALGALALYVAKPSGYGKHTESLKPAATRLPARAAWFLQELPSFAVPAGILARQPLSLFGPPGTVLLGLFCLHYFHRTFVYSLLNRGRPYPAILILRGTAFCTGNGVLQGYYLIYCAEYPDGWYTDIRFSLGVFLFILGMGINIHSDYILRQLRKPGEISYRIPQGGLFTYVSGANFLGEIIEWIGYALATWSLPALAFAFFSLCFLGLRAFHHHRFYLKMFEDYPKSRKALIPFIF
Method: (§1) Enzyme activies may be determined using microsomes derived from: 1) prostate tissue from benign prostatic hyperplasia (BPH) patients; 2) recombinant baculovirus infected SF9 cells that express human type 1 5α-reductase; or 3) recombinant baculovirus infected SF9 cells that express human type 2 5α-reductase. Microsomes were prepared by homogenization of the tissue or cells, followed by differential centrifugation of the homogenate. Microsome extracts were incubated with varying concentrations of [1,2,6,7-3H]-testosterone, 1 mM NADPH, and varying amounts of the compounds of Formula I, i.e. a test compound, in buffer containing a NADPH regenerating system capable of maintaining NADPH concentrations for a period of time within the range 0.5-240 minutes. Corresponding incubations were carried out with no test compound as a control study. For clone 1 IC50 measurements, assay components except testosterone were preincubated for 10 minutes at pH 7.0, and following the addition of 100 nM testosterone the assays were allowed to proceed for 10-120 minutes. For clone 2 IC50 measurements, assay components except testosterone were preincubated for 20 minutes at pH 6.0, and following the addition of 8 nM testosterone the assays were allowed to proceed for 20-40 minutes. […]

[6] = molecular target: T3, human type 1 5α-reductase (Homo sapiens, UniProt P18405); assay: Steroid 5α-reductase type 1 inhibition (microsomes, conversion of testosterone to DHT); format: biochemical
T3 construct: made in house; host or cells: SF9 insect cells infected with recombinant baculovirus (microsomes)
T3 sequence (P18405 1-259): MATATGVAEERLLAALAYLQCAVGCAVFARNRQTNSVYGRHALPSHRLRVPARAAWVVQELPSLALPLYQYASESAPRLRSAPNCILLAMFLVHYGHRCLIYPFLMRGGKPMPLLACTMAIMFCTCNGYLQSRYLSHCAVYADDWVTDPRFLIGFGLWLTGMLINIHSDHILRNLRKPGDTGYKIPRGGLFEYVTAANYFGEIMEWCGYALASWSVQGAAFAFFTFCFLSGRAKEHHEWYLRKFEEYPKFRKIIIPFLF
Method: as §1

Row | Structure (SMILES) | inhibition of bovine adrenal 3BHSD [1] | inhibition of porcine granulosa cell 3BHSD [2] | hepatotoxicity [3] | half-life [4] | pKi (Human Adrenal 3BHSD) | potency (5α-reductase) | pIC50 [5] | pIC50 [6]
1 | CCN(CC)C(=O)[C@H]1CC[C@H]2[C@@H]3CC[C@H]4N(C)C(=O)CC[C@]4(C)[C@H]3CC[C@]12C [4-MA] | potent inhibition | potent inhibition | hepatotoxicity |  |  |  |  | 
2 | C[C@]12C=CC(=O)N[C@@H]1CC[C@@H]1[C@@H]2CC[C@]2(C)[C@@H](C(=O)Nc3cc(C(F)(F)F)ccc3C(F)(F)F)CC[C@@H]12 [compound of formula (I), 17β-N-(2,5-bis(Trifluoromethyl))phenylcarbamoyl-4-aza-5α-androst-1-en-3-one] |  |  |  | surprisingly long half-life | < 6.00 | surprisingly long half-life and potency compared to finasteride and SKF105657 | > 9.00 | > 9.00
